For data set [1], the system named is HepG2. Put plainly: Growth inhibition of human HepG2 cells at 10 uM by MTT assay relative to control. The data set is classed as functional. The note with it: for inhibition of growth at 10 µM: read-out: GI. Background: Tetrazolium assays rely on reduction of a dye to a coloured formazan, in cell work by metabolically active cells.
Data set [2] relates to MCF7. Put plainly: Growth inhibition of human MCF7 cells at 10 uM by MTT assay relative to control. The format is functional. The note with it: for inhibition of growth at 10 µM: read-out: GI.
Data set [3] relates to HepG2. Put plainly: Growth inhibition of human HepG2 cells by MTT assay. The format is functional.
The test system of data set [4] is MCF7. Put plainly: Growth inhibition of human MCF7 cells by MTT assay. The format is functional.
Data set [5] is described as follows: Growth inhibition of human L-132 cells by MTT assay. The format is cell-based, L132.
The nature of data set [6]: Selectivity index, ratio of GI50 for human L-132 cells to GI50 for human MCF7 cells.
Data set [7] in a line: Selectivity index, ratio of GI50 for human L-132 cells to GI50 for human HepG2 cells.

The structures appear in SMILES notation. Activity calls are given as the source filed them. The rule behind the calls is not given here.

`COc1cc2oc(-c3ccc(NC(=O)c4ccc(Cl)cc4)cc3)cc(=O)c2c(O)c1OC`: the inhibition of growth at 10 µM in the data set on HepG2 [1] and in the data set with MCF7 [2] was less than 50% each time.

`COc1ccc(C(=O)Nc2cccc(-c3cc(=O)c4c(OC)c(OC)c(OC)cc4o3)c2)cc1`: the inhibition of growth at 10 µM with HepG2 [1] and in the data set on MCF7 [2] was more than 50% each time. In addition, the GI50 (in general, the concentration at which growth is held to half of that of the control) in the data set with HepG2 [3] worked out at 22.2 µM; in the data set on MCF7 [4], 6.87 µM.

Regarding `COC(=O)c1ccc(C(=O)Nc2ccc(-c3cc(=O)c4c(O)c(OC)c(OC)cc4o3)cc2)cc1`, the inhibition of growth at 10 µM in the data set with HepG2 [1] and with MCF7 [2] was less than 50% throughout.

For `COc1cccc(C(=O)Nc2ccc(-c3cc(=O)c4c(O)c(OC)c(OC)cc4o3)cc2)c1`, the inhibition of growth at 10 µM with HepG2 [1] and in the data set on MCF7 [2] was less than 50% throughout.

As for `COc1cc2oc(-c3cccc(NC(=O)c4ccc(C)cc4)c3)cc(=O)c2c(OC)c1OC`, the inhibition of growth at 10 µM with HepG2 [1] and with MCF7 [2] was more than 50% in each case. The values for the GI50 in the data set with HepG2 [3] and in the data set on MCF7 [4] were 9.75 µM and 8.32 µM, respectively.

Turning to `COc1cc2oc(-c3ccc(NC(=O)c4ccc(C(F)(F)F)cc4)cc3)cc(=O)c2c(O)c1OC`, the inhibition of growth at 10 µM in the data set with HepG2 [1] and with MCF7 [2] was less than 50% each time.

As for `COc1cc2oc(-c3cccc(NC(=O)c4ccc(F)cc4)c3)cc(=O)c2c(OC)c1OC`, the inhibition of growth at 10 µM in the data set with HepG2 [1] and in the data set on MCF7 [2] was more than 50% in each case. Besides, the GI50 in the data set with HepG2 [3] turned out to be 47.2 µM; in the data set on MCF7 [4], 14.7 µM.

Turning to `COc1cc2oc(-c3cccc(NC(=O)c4ccc([N+](=O)[O-])cc4)c3)cc(=O)c2c(OC)c1OC`, the inhibition of growth at 10 µM in the data set with HepG2 [1] and in the data set on MCF7 [2] was more than 50% each time. The GI50 in the data set on HepG2 [3] came out at 18.8 µM; with MCF7 [4], 20.1 µM.

As for `COc1cccc(C(=O)Nc2cccc(-c3cc(=O)c4c(OC)c(OC)c(OC)cc4o3)c2)c1`, the inhibition of growth at 10 µM in the data set on HepG2 [1] and in the data set on MCF7 [2] was more than 50% each time. The GI50 with HepG2 [3] worked out at 7.06 µM; in the data set with MCF7 [4], 7.67 µM; in data set [5], 20.9 µM. Besides, the RatioGI50 in data set [6] and in data set [7] was 2 - 3 in each case.

`COc1cc2oc(-c3cccc(NC(=O)c4ccc5c(c4)OCO5)c3)cc(=O)c2c(OC)c1OC`: the inhibition of growth at 10 µM with HepG2 [1] and with MCF7 [2] was more than 50% in each case. Further, the GI50 with HepG2 [3] is 5.94 µM; in the data set on MCF7 [4] it was 9.12 µM; in data set [5], 18 µM. Besides, the RatioGI50 in data set [6] and in data set [7] was 2 - 3 in each case.

Regarding `COc1cc2oc(-c3cccc(NC(=O)c4ccc(Br)cc4)c3)cc(=O)c2c(OC)c1OC`, the inhibition of growth at 10 µM in the data set on HepG2 [1] and in the data set on MCF7 [2] was more than 50% throughout. In addition, the GI50 in the data set with HepG2 [3] was determined as 8.85 µM; with MCF7 [4], 9.65 µM.

Regarding `COc1ccc(C(=O)Nc2cccc(-c3cc(=O)c4c(O)c(OC)c(OC)cc4o3)c2)cc1`, the inhibition of growth at 10 µM in the data set with HepG2 [1] and with MCF7 [2] was more than 50% each time. In addition, the values for the GI50 with HepG2 [3] and with MCF7 [4] were more than 100 µM and 2.05 µM, respectively.

With `COc1cc2oc(-c3ccc(NC(=O)c4ccc5c(c4)OCO5)cc3)cc(=O)c2c(O)c1OC`, the inhibition of growth at 10 µM in the data set with HepG2 [1] is 40%; in the data set on MCF7 [2] it was less than 50%.

Regarding `COc1ccccc1C(=O)Nc1ccc(-c2cc(=O)c3c(O)c(OC)c(OC)cc3o2)cc1`, the inhibition of growth at 10 µM with HepG2 [1] and in the data set on MCF7 [2] was less than 50% throughout.

`COc1cc2oc(-c3cccc(NC(=O)c4cccc(C#N)c4)c3)cc(=O)c2c(OC)c1OC`: the inhibition of growth at 10 µM in the data set with HepG2 [1] and in the data set on MCF7 [2] was more than 50% throughout. The GI50 in the data set on HepG2 [3] worked out at 11.9 µM; in the data set with MCF7 [4], 41.7 µM.

For `COc1cc2oc(-c3cccc(NC(=O)c4ccc(C#N)cc4)c3)cc(=O)c2c(OC)c1OC`, the inhibition of growth at 10 µM in the data set on HepG2 [1] and in the data set with MCF7 [2] was more than 50% in each case. The GI50 in the data set with HepG2 [3] was found to be 10.2 µM; with MCF7 [4], 12.7 µM.

With `COc1cc2oc(-c3cccc(NC(=O)c4ccc(Cl)cc4)c3)cc(=O)c2c(OC)c1OC`, the inhibition of growth at 10 µM in the data set with HepG2 [1] and in the data set with MCF7 [2] was more than 50% in each case. The concentration for 50% growth inhibition (GI50) with HepG2 [3] is 21.3 µM; in the data set on MCF7 [4], 8.78 µM.

Consider `COc1cc2oc(-c3cccc(NC(=O)c4cccc(Br)c4)c3)cc(=O)c2c(O)c1OC`, for which the inhibition of growth at 10 µM with HepG2 [1] and in the data set on MCF7 [2] was more than 50% throughout. For the same compound, the values for the GI50 with HepG2 [3] and in the data set on MCF7 [4] were 44.8 µM and 6.94 µM, respectively.

In the case of `COc1cc2oc(-c3ccc(NC(=O)c4ccc(F)cc4)cc3)cc(=O)c2c(O)c1OC`, the inhibition of growth at 10 µM in the data set on HepG2 [1] and with MCF7 [2] was less than 50% each time.

Regarding `COc1cc2oc(-c3ccccc3)cc(=O)c2c(OC)c1OC` [BAICALEIN TRIMETHYL ETHER], the inhibition of growth at 10 µM with HepG2 [1] and with MCF7 [2] was more than 50% throughout. The GI50 is 54 µM with HepG2 [3] and 91.4 µM in the data set with MCF7 [4].

Turning to `O=c1cc(-c2ccccc2)oc2cc(O)c(O)c(O)c12`, the “growth inhibition (GI)” value in the data set on HepG2 [1] and in the data set on MCF7 [2] was “inactive” throughout.

As for `COc1cc2oc(-c3cccc(NC(=O)c4cccc(Br)c4)c3)cc(=O)c2c(OC)c1OC`, the inhibition of growth at 10 µM with HepG2 [1] and in the data set with MCF7 [2] was more than 50% each time. The figures for the GI50 with HepG2 [3] and in the data set with MCF7 [4] were 10.9 µM and 6.34 µM, respectively.

For the compound `COc1cc2oc(-c3ccc(NC(=O)c4cccc(C#N)c4)cc3)cc(=O)c2c(O)c1OC`, the inhibition of growth at 10 µM in the data set with HepG2 [1] and in the data set on MCF7 [2] was less than 50% each time.

Regarding `COc1cc2oc(-c3ccc(NC(=O)c4ccc(C)cc4)cc3)cc(=O)c2c(O)c1OC`, the inhibition of growth at 10 µM with HepG2 [1] and in the data set on MCF7 [2] was less than 50% each time.

Turning to `COc1cccc(C(=O)Nc2cccc(-c3cc(=O)c4c(O)c(OC)c(OC)cc4o3)c2)c1`, the inhibition of growth at 10 µM with HepG2 [1] and with MCF7 [2] was more than 50% throughout. Also, the GI50 with HepG2 [3] was more than 100 µM; with MCF7 [4] it was 35.6 µM.

With `COc1cc2oc(-c3ccc(NC(=O)c4ccccc4)cc3)cc(=O)c2c(O)c1OC`, the inhibition of growth at 10 µM with HepG2 [1] and with MCF7 [2] was less than 50% throughout.

For `COc1cc2oc(-c3cccc(NC(=O)c4ccccc4Br)c3)cc(=O)c2c(OC)c1OC`, the inhibition of growth at 10 µM in the data set with HepG2 [1] and with MCF7 [2] was more than 50% throughout. Further, the GI50 in the data set on HepG2 [3] is 23.1 µM; with MCF7 [4] it was 55 µM.

As for `COc1cc2oc(-c3cccc(NC(=O)c4ccc(C(F)(F)F)cc4)c3)cc(=O)c2c(OC)c1OC`, the inhibition of growth at 10 µM in the data set on HepG2 [1] and in the data set with MCF7 [2] was more than 50% each time. Besides, the GI50 in the data set with HepG2 [3] came to 61.1 µM; with MCF7 [4], 10.6 µM.

For `COc1cc2oc(-c3ccc(NC(=O)c4ccc(C#N)cc4)cc3)cc(=O)c2c(O)c1OC`, the inhibition of growth at 10 µM with HepG2 [1] and in the data set on MCF7 [2] was less than 50% each time.

For `COc1cc2oc(-c3ccc(NC(=O)c4ccc(Br)cc4)cc3)cc(=O)c2c(O)c1OC`, the inhibition of growth at 10 µM in the data set on HepG2 [1] and in the data set on MCF7 [2] was less than 50% throughout.

In the case of `COc1ccccc1C(=O)Nc1cccc(-c2cc(=O)c3c(O)c(OC)c(OC)cc3o2)c1`, the inhibition of growth at 10 µM in the data set with HepG2 [1] and in the data set with MCF7 [2] was more than 50% throughout. Moreover, the GI50 is more than 100 µM in the data set on HepG2 [3] and 1.83 µM in the data set with MCF7 [4].

Take `COc1cc2oc(-c3ccc(NC(=O)c4ccccc4Br)cc3)cc(=O)c2c(O)c1OC`: the inhibition of growth at 10 µM with HepG2 [1] and in the data set on MCF7 [2] was less than 50% throughout.

Turning to `COC(=O)c1ccc(C(=O)Nc2cccc(-c3cc(=O)c4c(OC)c(OC)c(OC)cc4o3)c2)cc1`, the inhibition of growth at 10 µM in the data set with HepG2 [1] and in the data set on MCF7 [2] was more than 50% throughout. Further, the results for the GI50 with HepG2 [3] and in the data set with MCF7 [4] were more than 100 µM and 30.3 µM, respectively.

Take `COc1ccc(C(=O)Nc2ccc(-c3cc(=O)c4c(O)c(OC)c(OC)cc4o3)cc2)cc1`: the inhibition of growth at 10 µM in the data set on HepG2 [1] and in the data set with MCF7 [2] was less than 50% throughout.

For `COc1cc([C@@H]2c3cc4c(cc3[C@@H](O[C@@H]3O[C@@H]5CO[C@@H](C)O[C@H]5[C@H](O)[C@H]3O)[C@H]3COC(=O)[C@H]23)OCO4)cc(OC)c1O` [ETOPOSIDE], the GI50 in data set [5] was determined as 10.4 µM.

`COc1cc2oc(-c3ccc(NC(=O)c4cccc(Br)c4)cc3)cc(=O)c2c(O)c1OC`: the inhibition of growth at 10 µM was 40% with HepG2 [1] and less than 50% in the data set with MCF7 [2].

Consider `COc1cc2oc(-c3ccc(NC(=O)c4ccc([N+](=O)[O-])cc4)cc3)cc(=O)c2c(O)c1OC`, for which the inhibition of growth at 10 µM was 40% with HepG2 [1] and less than 50% in the data set with MCF7 [2].

Turning to `COc1ccccc1C(=O)Nc1cccc(-c2cc(=O)c3c(OC)c(OC)c(OC)cc3o2)c1`, the inhibition of growth at 10 µM in the data set with HepG2 [1] and in the data set with MCF7 [2] was more than 50% in each case. Further, the concentration for 50% growth inhibition (GI50) was 7.53 µM with HepG2 [3] and 15.3 µM in the data set with MCF7 [4].

On to `COc1cc2oc(-c3cccc(NC(=O)c4ccccc4)c3)cc(=O)c2c(OC)c1OC`, for which the inhibition of growth at 10 µM in the data set with HepG2 [1] and with MCF7 [2] was more than 50% throughout. The GI50 came out at 11.7 µM in the data set on HepG2 [3] and 12.1 µM with MCF7 [4].

`COc1cc2oc(-c3cccc(NC(=O)c4ccc5c(c4)OCO5)c3)cc(=O)c2c(O)c1OC`: the inhibition of growth at 10 µM with HepG2 [1] and in the data set on MCF7 [2] was more than 50% in each case. For the same compound, the GI50 with HepG2 [3] worked out at 45.1 µM; in the data set on MCF7 [4], 8.47 µM.

The values are drawn from ChEMBL document CHEMBL4425196, “Synthesis of novel flavone derivatives possessing substituted benzamides and their biological evaluation against human cancer cells” (Bioorg Med Chem Lett, 2016).
